According to US9926304B2, “1-(arylmethyl)quinazoline-2,4(1H,3H)-diones as PARP inhibitors and the use thereof” (Impact Therapeutics, Inc., priority 2011, dated 2018):
Where two headings read alike, the source gives them in different places.

What was measured:
[1] = system: Human breast cancer cell line T47D; experiment: Cell based caspase-3 activity assay: potentiation of MMS induced apoptosis; conditions: T47D cells, 11.1 μg/ml MMS, 24 hours, intracellular caspase-3 activity, read-out: EC50 (nM), potentiation of the apoptosis inducing activity of MMS
Excerpt: Determination of the synergistic potentiation effect of 1-(3-(4-(pyrimidin-2-yl)piperazine-1-carbonyl)benzyl)quinazoline-2,4(1H,3H)-dione and analogs on MMS induced apoptosis using a cell based caspase-3 activity assay
Human breast cancer cell line T47D was used to determine the potentiation effect of PARP inhibitors on the apoptosis inducing activity of DNA damaging anticancer drugs such as MMS. Intracellular caspase-3 activity was used to measure cell apoptosis. The dose response effect of MMS to induce intracellular caspase activity was carefully titrated and the concentration that only induces a minimal level of caspase activity was used to test the potentiation effect of PARP inhibitors. Briefly, T47D cells were grown in DMEM/F12 cell culture medium (Hyclone) supplemented with 0.2 U/ml insulin (Genview) and 10% FBS (Hyclone). A day before experiment, 20000 of T47D cells were seeded to each well of a 96-well cell culture plate and maintained at 37° C. and 5% CO2 in a cell culture incubator overnight. On the day of experiment, cell culture medium was removed. One hundred and eighty μl of fresh medium containing 11.1 μg/ml MMS was added to each well and followed by 20 μl medium containing 10 folds of the concentrations of experimental drugs or reference compounds (ADZ2281 and ABT-888). The serial dilutions of the compounds to be tested and the reference compounds were made in a 1:3 and 1:10 fashion in DMSO. The 10-fold compound solutions were made by mixing 10 μl DMSO serial dilution solutions with 90 μl fresh growth medium. Twenty four hours later, the cells in the 96-well plates were centrifuged at 1000 g for 5 min and the supernatants were removed. Fifty μl lysis buffer (10 mM Tris, pH7.5, 0.1M NaCl, 1 mM EDTA, 0.01% Triton X-100) was added to each well and the plates were shaked horizontally for 30 min at 4° C. After centrifugation at 1000 g at 4° C. for 10 min, 20 μl of supernatant was transferred from each well to a corresponding well in a 384-well black plate. Twenty μl of buffer (20 mM PIPES, pH7.4, 4 mM EDTA and 0.2% CHAPS) containing 20 μM fluorescent caspase-3 substrate ((Ac-DEVD)2-R110, AnaSpec Cat #60304-5) was added to each well afterwards. The plates were shaked to uniformly mix the wells and incubated at 37° C. for 3 h. The fluorescence intensity was measured using the following wavelength: ex: 496 nm, em: 520 nm using a fluorescence plate reader (Varioskan Flash, Thermo Fisher Scientific). The caspase-3 activity induced by the compounds was expressed as a relative fluorescence unit (RFU). The obtained fluorescence readings were analyzed using a commercial graphic software (GraphPad Prism 5) and plotted against the Log value of the compound concentrations. The EC50 values were obtained by fitting the data points with the equation of Y (fluorescence reading)=minimal fluorescence reading+(maximal fluorescence reading−minimal fluorescence reading)/(1+10^(Log EC50−Log C)), where C is the concentration of the testing compound.
The synergistic potentiation effect of compounds on MMS induced apoptosis in T47D cells is expressed as EC50 values and listed in Table 2.

[2] = system: SW620 human colorectal cancer cells; experiment: MTT based cell viability assay: potentiation of the growth inhibiting activity of MMS
[3] = Homo sapiens, SW-620, 120 h, read-out: IC50 (nM), potentiation of the growth inhibiting activity of MMS, SW620 cells, 1.7 μg/ml MMS, 5 days (120 hours), MTT
[4] = read-out: IC50 (nM), potentiation of the growth inhibiting activity of MMS, SW620 cells, 1.7 μg/ml MMS, 5 days (120 hours), MTT

Row | Compound | EC50 ([1]; Homo sapiens, T47D, 24 h) | IC50 [2, 3] | EC50 [1] | IC50 [2, 4]
1 | COc1ccc(C(=O)N2CCN(C(=O)c3cccc(Cn4c(=O)[nH]c(=O)c5ccccc54)c3)CC2)cc1 [Example 12, 1-(3-(4-(4-Methoxybenzoyl)piperazine-1-carbonyl)benzyl)quinazoline-2,4(1H,3H)-dione] | 318 nM | 533 nM |  | 
2 | O=C(c1cccc(Cn2c(=O)[nH]c(=O)c3cc(F)ccc32)c1)N1CCN(C(=O)C2CCC2)CC1 [Example 179, 1-(3-(4-(Cyclobutylcarbonyl)piperazine-1-carbonyl)benzyl)-6-fluoroquinazoline-2,4(1H,3H)-dione] | 7.4 nM | 12 nM |  | 
3 | O=C(NCc1cccc(Cl)c1)c1cc(Cn2c(=O)[nH]c(=O)c3c(F)cccc32)ccc1F [Example 201, 1-(3-(3-Chlorobenzylcarbamoyl)-4-fluorobenzyl)-5-fluoroquinazoline-2,4(1H,3H)-dione] | > 10000 nM | > 10000 nM |  | 
4 | O=C(c1cc(Cn2c(=O)[nH]c(=O)c3c(F)cccc32)ccc1Br)N1CCN(c2ncccn2)CC1 [Example 215, 1-(4-Bromo-3-(4-(pyrimidin-2-yl)piperazine-1-carbonyl)benzyl)-5-fluoroquinazoline-2,4(1H,3H)-dione] | 743 nM | 1390 nM |  | 
5 | O=C(c1cccc(Cn2c(=O)[nH]c(=O)c3cc4c(cc32)OCCO4)c1)N1CCN(c2ncccn2)CC1 [Example 207, 6,7-Ethylenedioxo-1-(3-(4-(pyrimidin-2-yl)piperazine-1-carbonyl)benzyl)quinazoline-2,4(1H,3H)-dione] |  |  | > 10000 nM | > 10000 nM
6 | Cc1ccc2c(c1)c(=O)[nH]c(=O)n2Cc1ccc(F)c(C(=O)N2CCN(C(=O)C3CCCCC3)CC2)c1 [Example 84, 1-(3-(4-(Cyclohexylcarbonyl)piperazine-1-carbonyl)-4-fluorobenzyl)-6-methylquinazoline-2,4(1H,3H)-dione] | 18 nM | 52 nM |  | 
7 | O=C(c1ccc(Cn2c(=O)[nH]c(=O)c3ccccc32)cc1)N1CCN(c2ccccn2)CC1 [Example 94, 1-(4-(4-(Pyridin-2-yl)piperazine-1-carbonyl)benzyl)quinazoline-2,4(1H,3H)-dione] | > 10000 nM | > 10000 nM |  | 
8 | 1-(3-(4-(Cyclopentylcarbonyl)piperazine-1-carbonyl)-6-fluorobenzyl)-6-fluoroquinazoline-2,4(1H,3H)-dione [Example 153] |  |  | 2 nM | 9.2 nM
9 | O=C(c1ccc(Cl)c(Cn2c(=O)[nH]c(=O)c3ccccc32)c1)N1CCN(C(=O)C2CCCCC2)CC1 [Example 57, 1-(6-Chloro-3-(4-(cyclohexylcarbonyl)piperazine-1-carbonyl)benzyl)quinazoline-2,4(1H,3H)-dione] | 22 nM | 46 nM |  | 
10 | O=C(c1cc(Cn2c(=O)[nH]c(=O)c3c(F)cccc32)ccc1F)N1CCN(C(=O)C2CCC2)CC1 [Example 166, 1-(3-(4-(Cyclobutylcarbonyl)piperazine-1-carbonyl)-4-fluorobenzyl)-5-fluoroquinazoline-2,4(1H,3H)-dione] | 1.6 nM | 4 nM |  | 
11 | 1-(3-(4-(Cyclopentylcarbonyl)piperazine-1-carbonyl)-4-fluorobenzyl)-6-fluoroquinazoline-2,4(1H,3H)-dione [Example 148] |  |  | 2.3 nM | 2.1 nM
12 | O=C(c1cc(F)cc(Cn2c(=O)[nH]c(=O)c3ccccc32)c1)N1CCN(c2ncccn2)CC1 [Example 63, 1-(5-Fluoro-3-(4-(pyrimidin-2-yl)piperazine-1-carbonyl)benzyl)quinazoline-2,4(1H,3H)-dione] | 15 nM | 50 nM |  | 
13 | O=C(c1cc(F)cc(Cn2c(=O)[nH]c(=O)c3cc(Cl)ccc32)c1)N1CCN(c2ncccn2)CC1 [Example 175, 6-Chloro-1-(5-fluoro-3-(4-(pyrimidin-2-yl)piperazine-1-carbonyl)benzyl)quinazoline-2,4(1H,3H)-dione] | 14 nM | 16 nM |  | 
